Experiments:
Test in all cases: Z'-LYTE kinase panel
Assay type in all cases: biochemical
[1] = molecular target: T1, ABL2 (Arg) (Homo sapiens, UniProt P42684)
T1 construct: purchased ThermoFisher (SelectScreen, Z'-LYTE)
Procedure, shortened: (§1)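 Readout is percentage inhibition, obtained from the standard Z′-LYTE protocol with test compound present at 10 µM; screened within a panel of 225 kinases.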

[2] = molecular target: T2, MATK (HYL) (Homo sapiens, UniProt P42679)
T2 construct: purchased ThermoFisher (SelectScreen, Z'-LYTE)
T2 sequence (P42679 1-507): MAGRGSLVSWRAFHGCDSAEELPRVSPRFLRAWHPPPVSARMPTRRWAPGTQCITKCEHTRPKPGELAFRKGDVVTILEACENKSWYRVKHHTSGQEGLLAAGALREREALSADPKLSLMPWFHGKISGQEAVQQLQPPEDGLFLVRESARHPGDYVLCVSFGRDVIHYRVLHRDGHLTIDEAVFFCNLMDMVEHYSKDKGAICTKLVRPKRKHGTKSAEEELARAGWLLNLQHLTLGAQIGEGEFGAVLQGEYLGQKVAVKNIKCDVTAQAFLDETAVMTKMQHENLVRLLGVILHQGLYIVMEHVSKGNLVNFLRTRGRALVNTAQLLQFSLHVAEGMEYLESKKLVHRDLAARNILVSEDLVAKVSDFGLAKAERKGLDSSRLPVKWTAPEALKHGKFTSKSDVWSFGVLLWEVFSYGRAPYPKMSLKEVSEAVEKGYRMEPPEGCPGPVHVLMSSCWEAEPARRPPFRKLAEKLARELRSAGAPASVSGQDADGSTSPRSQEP
Procedure, shortened: as §1

[3] = molecular target: T3, GRK4 (Homo sapiens, UniProt P32298)
T3 construct: purchased ThermoFisher (SelectScreen, Z'-LYTE)
T3 sequence (P32298 whole entry): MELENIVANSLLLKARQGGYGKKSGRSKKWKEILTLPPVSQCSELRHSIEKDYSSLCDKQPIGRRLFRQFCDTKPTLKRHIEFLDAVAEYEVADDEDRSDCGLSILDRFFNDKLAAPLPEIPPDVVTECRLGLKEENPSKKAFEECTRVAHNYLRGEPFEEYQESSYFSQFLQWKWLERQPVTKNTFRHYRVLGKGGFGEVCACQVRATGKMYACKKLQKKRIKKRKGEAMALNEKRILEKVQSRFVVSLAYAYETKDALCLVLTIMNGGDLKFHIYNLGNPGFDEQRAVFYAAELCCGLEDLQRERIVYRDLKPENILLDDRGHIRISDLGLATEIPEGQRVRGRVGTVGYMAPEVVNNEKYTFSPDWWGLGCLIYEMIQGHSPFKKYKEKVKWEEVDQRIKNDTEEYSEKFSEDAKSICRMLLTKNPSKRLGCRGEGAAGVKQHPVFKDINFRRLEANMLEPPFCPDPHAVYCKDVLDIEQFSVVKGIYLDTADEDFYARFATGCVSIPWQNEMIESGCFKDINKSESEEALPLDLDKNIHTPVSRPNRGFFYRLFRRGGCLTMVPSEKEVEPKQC
Procedure, shortened: as §1

[4] = molecular target: T4, CSNK1G2 (CK1 gamma 2) (Homo sapiens, UniProt P78368)
T4 construct: purchased ThermoFisher (SelectScreen, Z'-LYTE)
T4 sequence (P78368 whole entry): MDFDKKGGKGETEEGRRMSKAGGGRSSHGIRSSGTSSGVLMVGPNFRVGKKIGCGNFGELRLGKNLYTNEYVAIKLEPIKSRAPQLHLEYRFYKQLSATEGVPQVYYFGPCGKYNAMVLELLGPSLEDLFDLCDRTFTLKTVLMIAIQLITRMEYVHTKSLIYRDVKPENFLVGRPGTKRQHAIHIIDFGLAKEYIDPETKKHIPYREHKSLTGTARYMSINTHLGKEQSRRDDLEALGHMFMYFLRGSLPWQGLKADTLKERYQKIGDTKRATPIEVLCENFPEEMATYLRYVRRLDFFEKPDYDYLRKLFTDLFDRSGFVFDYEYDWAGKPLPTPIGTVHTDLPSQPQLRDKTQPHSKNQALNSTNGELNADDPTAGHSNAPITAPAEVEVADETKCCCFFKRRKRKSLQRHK
Procedure, shortened: as §1

[5] = molecular target: T5, PASK (Homo sapiens, UniProt Q96RG2)
T5 construct: purchased ThermoFisher (SelectScreen, Z'-LYTE)
T5 sequence (Q96RG2 whole entry): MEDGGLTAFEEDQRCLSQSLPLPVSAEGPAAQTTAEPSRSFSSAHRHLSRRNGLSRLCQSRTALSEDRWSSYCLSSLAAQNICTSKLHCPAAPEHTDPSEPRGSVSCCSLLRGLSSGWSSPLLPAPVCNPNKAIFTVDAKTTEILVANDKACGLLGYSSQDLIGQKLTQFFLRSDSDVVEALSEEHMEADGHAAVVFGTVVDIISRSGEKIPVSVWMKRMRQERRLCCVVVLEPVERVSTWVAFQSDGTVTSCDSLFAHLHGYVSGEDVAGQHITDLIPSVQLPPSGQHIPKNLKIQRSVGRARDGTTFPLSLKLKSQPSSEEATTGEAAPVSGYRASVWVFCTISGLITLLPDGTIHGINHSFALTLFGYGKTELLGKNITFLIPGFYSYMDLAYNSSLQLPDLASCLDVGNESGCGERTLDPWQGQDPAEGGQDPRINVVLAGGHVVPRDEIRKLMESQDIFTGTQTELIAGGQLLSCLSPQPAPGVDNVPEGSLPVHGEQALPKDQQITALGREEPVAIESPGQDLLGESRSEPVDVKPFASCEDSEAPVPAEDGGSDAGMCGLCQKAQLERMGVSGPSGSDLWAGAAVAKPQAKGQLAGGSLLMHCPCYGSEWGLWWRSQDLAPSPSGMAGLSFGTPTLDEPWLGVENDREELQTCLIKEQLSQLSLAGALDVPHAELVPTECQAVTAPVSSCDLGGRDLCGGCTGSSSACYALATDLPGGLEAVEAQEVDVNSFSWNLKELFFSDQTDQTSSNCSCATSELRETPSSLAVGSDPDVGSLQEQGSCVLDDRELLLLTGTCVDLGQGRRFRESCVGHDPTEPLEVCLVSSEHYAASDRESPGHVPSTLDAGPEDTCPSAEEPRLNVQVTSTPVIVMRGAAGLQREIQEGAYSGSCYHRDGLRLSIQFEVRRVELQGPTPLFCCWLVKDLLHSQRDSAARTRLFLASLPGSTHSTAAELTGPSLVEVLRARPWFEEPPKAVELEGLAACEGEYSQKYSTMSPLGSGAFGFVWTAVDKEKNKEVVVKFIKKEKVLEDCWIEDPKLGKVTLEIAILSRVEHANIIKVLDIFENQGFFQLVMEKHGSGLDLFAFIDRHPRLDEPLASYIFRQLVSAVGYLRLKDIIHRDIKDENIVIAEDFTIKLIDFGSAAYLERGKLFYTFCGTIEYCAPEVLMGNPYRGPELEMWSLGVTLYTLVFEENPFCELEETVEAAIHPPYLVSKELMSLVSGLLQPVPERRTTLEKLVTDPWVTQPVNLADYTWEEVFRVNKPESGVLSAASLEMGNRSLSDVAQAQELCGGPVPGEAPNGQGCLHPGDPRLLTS
Procedure, shortened: as §1

[6] = molecular target: T6, CDK5/p25 (Homo sapiens, UniProt Q00535)
T6 construct: purchased ThermoFisher (SelectScreen, Z'-LYTE)
Procedure, shortened: as §1

[7] = molecular target: T7, CHEK2 (CHK2) (Homo sapiens, UniProt O96017)
T7 construct: purchased ThermoFisher (SelectScreen, Z'-LYTE)
T7 sequence (O96017 whole entry): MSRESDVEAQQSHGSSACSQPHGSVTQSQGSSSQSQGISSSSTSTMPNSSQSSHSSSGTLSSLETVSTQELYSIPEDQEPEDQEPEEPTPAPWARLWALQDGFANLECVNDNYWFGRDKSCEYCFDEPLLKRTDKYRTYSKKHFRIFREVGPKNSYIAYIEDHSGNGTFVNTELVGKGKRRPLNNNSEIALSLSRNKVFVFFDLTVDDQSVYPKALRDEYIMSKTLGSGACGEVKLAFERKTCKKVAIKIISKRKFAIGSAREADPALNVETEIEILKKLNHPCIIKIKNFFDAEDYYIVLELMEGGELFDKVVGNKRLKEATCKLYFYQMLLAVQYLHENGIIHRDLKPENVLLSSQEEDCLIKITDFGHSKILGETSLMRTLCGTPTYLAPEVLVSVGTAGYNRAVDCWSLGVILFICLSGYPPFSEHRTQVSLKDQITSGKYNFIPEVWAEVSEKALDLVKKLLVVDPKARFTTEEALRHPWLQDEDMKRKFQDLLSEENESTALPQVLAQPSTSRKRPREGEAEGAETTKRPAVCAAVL
Procedure, shortened: as §1

[8] = molecular target: T8, RPS6KA3 (RSK2) (Homo sapiens, UniProt P51812)
T8 construct: purchased ThermoFisher (SelectScreen, Z'-LYTE)
Procedure, shortened: as §1

[9] = molecular target: T9, PAK4 (Homo sapiens, UniProt O96013)
T9 construct: purchased ThermoFisher (SelectScreen, Z'-LYTE)
T9 sequence (O96013 whole entry): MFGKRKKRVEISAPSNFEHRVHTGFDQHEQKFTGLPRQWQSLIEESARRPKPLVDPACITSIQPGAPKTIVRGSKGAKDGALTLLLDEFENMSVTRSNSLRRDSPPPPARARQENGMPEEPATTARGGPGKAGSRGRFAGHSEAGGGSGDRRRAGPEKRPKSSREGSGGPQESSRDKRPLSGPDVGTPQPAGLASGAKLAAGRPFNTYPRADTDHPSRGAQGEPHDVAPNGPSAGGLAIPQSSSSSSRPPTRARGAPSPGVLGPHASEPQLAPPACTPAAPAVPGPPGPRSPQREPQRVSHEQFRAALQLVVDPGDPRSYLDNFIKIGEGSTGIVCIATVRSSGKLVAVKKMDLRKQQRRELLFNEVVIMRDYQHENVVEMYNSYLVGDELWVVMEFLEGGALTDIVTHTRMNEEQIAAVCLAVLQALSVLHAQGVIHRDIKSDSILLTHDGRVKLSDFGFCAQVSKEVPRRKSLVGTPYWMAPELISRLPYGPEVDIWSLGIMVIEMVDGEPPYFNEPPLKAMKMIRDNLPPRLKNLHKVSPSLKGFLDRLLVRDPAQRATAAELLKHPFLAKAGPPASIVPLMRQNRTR
Procedure, shortened: as §1

[10] = molecular target: T10, MAP2K6 (MKK6) (Homo sapiens, UniProt P52564); settings: 10 µM compound; ATP 100
T10 construct: purchased ThermoFisher (SelectScreen, Z'-LYTE)
T10 sequence (P52564 1-334): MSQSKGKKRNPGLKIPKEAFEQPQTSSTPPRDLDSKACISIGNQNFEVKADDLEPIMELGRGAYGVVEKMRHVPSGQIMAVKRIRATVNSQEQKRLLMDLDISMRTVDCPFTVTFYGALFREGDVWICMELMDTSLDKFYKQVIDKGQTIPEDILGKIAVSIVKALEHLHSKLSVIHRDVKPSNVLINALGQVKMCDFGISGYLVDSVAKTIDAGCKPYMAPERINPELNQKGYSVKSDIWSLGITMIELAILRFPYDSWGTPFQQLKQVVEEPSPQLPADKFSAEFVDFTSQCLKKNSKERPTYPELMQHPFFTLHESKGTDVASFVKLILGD
Procedure, shortened: as §1

[11] = molecular target: T11, EGFR (ErbB1) (Homo sapiens, UniProt P00533)
T11 construct: purchased ThermoFisher (SelectScreen, Z'-LYTE)
Procedure, shortened: as §1

[12] = molecular target: T12, STK3 (MST2) (Homo sapiens, UniProt Q13188)
T12 construct: purchased ThermoFisher (SelectScreen, Z'-LYTE)
T12 sequence (Q13188 1-491): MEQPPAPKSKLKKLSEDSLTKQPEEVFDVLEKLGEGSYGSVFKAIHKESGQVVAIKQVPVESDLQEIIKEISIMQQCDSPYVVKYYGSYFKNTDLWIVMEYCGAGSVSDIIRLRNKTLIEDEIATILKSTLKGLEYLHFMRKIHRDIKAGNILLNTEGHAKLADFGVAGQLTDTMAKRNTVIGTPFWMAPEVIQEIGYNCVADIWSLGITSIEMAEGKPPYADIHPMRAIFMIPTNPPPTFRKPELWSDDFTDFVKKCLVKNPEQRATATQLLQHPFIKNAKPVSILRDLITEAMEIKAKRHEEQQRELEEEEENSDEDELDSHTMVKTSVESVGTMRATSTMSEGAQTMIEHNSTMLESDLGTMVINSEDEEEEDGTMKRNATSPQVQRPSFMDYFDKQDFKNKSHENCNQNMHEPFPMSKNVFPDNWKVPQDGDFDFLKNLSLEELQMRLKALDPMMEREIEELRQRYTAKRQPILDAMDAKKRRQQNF
Procedure, shortened: as §1

[13] = molecular target: T13, CAMK2B (CaMKII beta) (Homo sapiens, UniProt Q13554)
T13 construct: purchased ThermoFisher (SelectScreen, Z'-LYTE)
Procedure, shortened: as §1

T1 sequence (P42684 whole entry): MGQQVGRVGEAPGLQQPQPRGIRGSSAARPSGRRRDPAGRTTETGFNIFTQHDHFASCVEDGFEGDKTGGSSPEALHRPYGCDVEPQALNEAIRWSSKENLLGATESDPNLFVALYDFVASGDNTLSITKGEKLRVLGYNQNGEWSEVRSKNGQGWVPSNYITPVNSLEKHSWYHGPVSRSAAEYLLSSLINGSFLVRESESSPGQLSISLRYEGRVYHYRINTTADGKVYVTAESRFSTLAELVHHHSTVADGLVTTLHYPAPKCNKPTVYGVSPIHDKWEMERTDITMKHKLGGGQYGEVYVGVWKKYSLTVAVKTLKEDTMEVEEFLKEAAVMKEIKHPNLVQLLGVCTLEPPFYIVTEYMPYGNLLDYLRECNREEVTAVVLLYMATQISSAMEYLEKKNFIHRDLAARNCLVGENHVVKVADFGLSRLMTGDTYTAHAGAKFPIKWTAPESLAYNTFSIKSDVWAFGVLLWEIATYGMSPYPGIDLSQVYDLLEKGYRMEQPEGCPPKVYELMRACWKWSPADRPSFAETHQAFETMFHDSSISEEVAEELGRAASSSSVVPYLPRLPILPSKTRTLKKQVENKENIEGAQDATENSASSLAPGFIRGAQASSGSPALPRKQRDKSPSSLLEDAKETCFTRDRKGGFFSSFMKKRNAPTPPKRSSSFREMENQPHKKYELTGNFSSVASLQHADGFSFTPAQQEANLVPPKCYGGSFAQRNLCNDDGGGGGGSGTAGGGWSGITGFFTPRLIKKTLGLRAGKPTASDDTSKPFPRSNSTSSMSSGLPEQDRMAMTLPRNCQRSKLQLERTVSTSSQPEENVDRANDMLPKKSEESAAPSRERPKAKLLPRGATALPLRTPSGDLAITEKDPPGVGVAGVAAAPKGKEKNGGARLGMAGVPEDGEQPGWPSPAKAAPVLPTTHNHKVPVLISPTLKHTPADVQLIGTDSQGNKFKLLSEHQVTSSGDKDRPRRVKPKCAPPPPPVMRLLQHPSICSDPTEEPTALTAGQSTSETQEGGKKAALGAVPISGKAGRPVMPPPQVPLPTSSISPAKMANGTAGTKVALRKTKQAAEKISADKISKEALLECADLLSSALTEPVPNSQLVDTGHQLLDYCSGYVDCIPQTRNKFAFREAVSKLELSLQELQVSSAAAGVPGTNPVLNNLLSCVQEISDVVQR

With `Cc1ncc(-c2nc(Nc3ccc(C(=O)NCCN4CCCCC4)cc3)ncc2F)n1C(C)C` [Compound 3] the inhibition at 10 µM [1] was 75%, the inhibition at 10 µM [2] was 0.522% and the inhibition at 10 µM [3] was 41%. For the same molecule, the inhibition at 10 µM [4] was 93%, the inhibition at 10 µM [5] was 30% and the inhibition at 10 µM [6] was 99%. It also gave an inhibition at 10 µM [7] of 88%, an inhibition at 10 µM [8] of 81% and an inhibition at 10 µM [9] of 81%. The inhibition at 10 µM [10] was 88%, the inhibition at 10 µM [11] was 13% and the inhibition at 10 µM [12] was 79%. For the same molecule, the inhibition at 10 µM [13] was 70%.
Molecule `Cc1cc(Nc2nc(N)nn2C(=O)NC(C)C)ccc1Cl` [Compound 5] has an inhibition at 10 µM [1] of 52%, an inhibition at 10 µM [2] of -1.63% and an inhibition at 10 µM [3] of 7%. The inhibition at 10 µM [4] was 10%, the inhibition at 10 µM [5] was 1.44% and the inhibition at 10 µM [6] was 77%. The inhibition at 10 µM [7] was 4.23%, the inhibition at 10 µM [8] was 37% and the inhibition at 10 µM [9] was 41%. For the same molecule, the inhibition at 10 µM [10] was -1.06%, the inhibition at 10 µM [11] was 1% and the inhibition at 10 µM [12] was 53%. It also gave an inhibition at 10 µM [13] of -2.29%.
For “XMD8-92 [Compound 2, reference compound]”, the “ABL2 (Arg) % Inhibition” value ([1]; 10 µM compound, ATP Km app) was 21%, the “MATK (HYL) % Inhibition” value ([2]; 10 µM compound, ATP Km app) was 2.46% and the “GRK4 % Inhibition” value ([3]; 10 µM compound, ATP Km app) was 93%. The “CSNK1G2 (CK1 gamma 2) % Inhibition” value ([4]; 10 µM compound, ATP Km app) was 11%, the “PASK % Inhibition” value ([5]; 10 µM compound, ATP Km app) was 49% and the “CDK5/p25 % Inhibition” value ([6]; 10 µM compound, ATP Km app) was 38%. For the same molecule, the “CHEK2 (CHK2) % Inhibition” value ([7]; 10 µM compound, ATP Km app) was 26%, the “RPS6KA3 (RSK2) % Inhibition” value ([8]; 10 µM compound, ATP Km app) was 98% and the “PAK4 % Inhibition” value ([9]; 10 µM compound, ATP Km app) was 26%. For the same molecule, the “MAP2K6 (MKK6) % Inhibition” value [10] was 8%, the “EGFR (ErbB1) % Inhibition” value ([11]; 10 µM compound, ATP Km app) was -11% and the “STK3 (MST2) % Inhibition” value ([12]; 10 µM compound, ATP Km app) was -12%. The “CAMK2B (CaMKII beta) % Inhibition” value ([13]; 10 µM compound, ATP Km app) was 70%.

Source: publication PMC4854315, “Discovery of a novel allosteric inhibitor-binding site in ERK5: comparison with the canonical kinase hinge ATP-binding site” (Acta Crystallographica. Section D, Structural Biology, 2016)
